Data: PubChem BioAssay (NCI)
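Test compounds were applied to cells in 96-well plates for 48 hours at 5 doses. TGI denotes the concentration required for complete inhibition of growth.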 Where a SMILES comes first, the peptide text is derived from it. The star is where a group is joined. Cbz = O=C(OCc1ccccc1)*; Boc = CC(C)(C)OC(=O)*; Bn = c1ccc(C*)cc1

How the values were obtained:
Experiment in all cases: NCI-60 cell line screen, 48 h
NCI-H460 lung = system: NCI-H460 lung
OVCAR-8 ovarian = system: OVCAR-8 ovarian
ACHN renal = system: ACHN renal
UO-31 renal = system: UO-31 renal
SNB-19 CNS = system: SNB-19 CNS
OVCAR-3 ovarian = system: OVCAR-3 ovarian
MALME-3M melanoma = system: MALME-3M melanoma
RPMI-8226 leukemia = system: RPMI-8226 leukemia
SK-MEL-28 melanoma = system: SK-MEL-28 melanoma
SF-295 CNS = system: SF-295 CNS
NCI/ADR-RES ovarian = system: NCI/ADR-RES ovarian
TK-10 renal = system: TK-10 renal
A549 NSCLC = system: A549 NSCLC
OVCAR-5 ovarian = system: OVCAR-5 ovarian
OVCAR-4 ovarian = system: OVCAR-4 ovarian
PC-3 prostate = system: PC-3 prostate
M14 melanoma = system: M14 melanoma
SK-MEL-2 melanoma = system: SK-MEL-2 melanoma
NCI-H522 lung = system: NCI-H522 lung

SMILES	TGI (NCI-H460 lung) [µM]	TGI (OVCAR-8 ovarian) [µM]	TGI (ACHN renal) [µM]	TGI (UO-31 renal) [µM]	TGI (SNB-19 CNS) [µM]	TGI (OVCAR-3 ovarian) [µM]	TGI (MALME-3M melanoma) [µM]	TGI (RPMI-8226 leukemia) [µM]	TGI (SK-MEL-28 melanoma) [µM]	TGI (SF-295 CNS) [µM]	TGI (NCI/ADR-RES ovarian) [µM]	TGI (TK-10 renal) [µM]	TGI (A549 NSCLC) [µM]	TGI (OVCAR-5 ovarian) [µM]	TGI (OVCAR-4 ovarian) [µM]	TGI (PC-3 prostate) [µM]	TGI (M14 melanoma) [µM]	TGI (SK-MEL-2 melanoma) [µM]	TGI (NCI-H522 lung) [µM]
CN1CCN(c2cc3c(cc2F)c(=O)c(C(=O)O)cn3C2CC2)CC1CC#N (stereo unspecified)	> 100	> 100	> 100	> 100	> 100	> 100	> 100	> 100	> 100	> 100	> 100	> 100	> 100	> 100	> 100				
CCOC(=O)NC(C(=O)OCC)C(F)(F)F (stereo unspecified)	> 100	> 100	> 100	> 100	> 100	> 100	> 100	> 100	> 100	> 100	> 100	> 100	> 100	> 100		> 100	> 100	> 100	
CC(C)C1OC2(C)OC(=N)C1(C#N)C(C#N)(C#N)C2C (stereo unspecified)	33.8	79.5	> 100	> 100		33.4	57.8		> 100	> 100	> 100	> 100	> 100	71.1		> 100	30.5	67.7	
OCC1OC(Oc2cc(O)cc(/C=C/c3ccc(O)cc3)c2)C(O)C(O)C1O (stereo unspecified)	> 100	> 100	> 100	> 100	> 100	> 100		> 100	> 100	> 100	> 100	> 100	> 100	> 100	> 100	> 100		> 100	> 100
O=C1NC(=S)NC(=O)C1C(c1ccc([N+](=O)[O-])cc1)C1C(=O)NC(=S)NC1=O	> 100	> 100	> 100	> 100	> 100	> 100		> 100	> 100	> 100	> 100	> 100	> 100	> 100	> 100	> 100	> 100	> 100	> 100
N#CCCSC1SC(=C2SC3=C(SCCS3)S2)SC1SCCC#N (stereo unspecified)	> 100	> 100	> 100	> 100	> 100	> 100			> 100	> 100	> 100	> 100	> 100	> 100	> 100	> 100	> 100	> 100	> 100
c1cc(CSP234N5CCN2CCN3CCN4CC5)ccc1CSP123N4CCN1CCN2CCN3CC4	> 100	> 100	> 100	> 100	> 100	> 100		84.6	> 100	> 100	> 100	> 100	> 100	> 100	> 100	> 100	> 100	> 100	> 100
Cc1ccccc1NC(=O)C(=O)CC(=O)c1sc(Nc2ccccc2[N+](=O)[O-])nc1C	> 100	> 100	48.3	32.4	> 100	79.5		> 100	82.8	66.7	> 100	81.5	> 100	> 100	52.9	> 100	> 100	> 100	86.1
CC(C)(C)OC(=O)NC(Cc1ccc(OCc2ccccc2)cc1)C(=O)NC(CCCCNC(=O)OCc1ccccc1)C(=O)O (stereo unspecified) (Boc-Tyr(Bn)-Lys(Cbz)-OH; configuration not given here)		> 100		> 100	> 100		> 100	> 100	44.2			> 100	> 100	> 100		> 100	> 100	80	
NC1=NNC2(C(=O)N1)c1ccccc1-c1ccccc12	> 10	> 10	> 10	> 10	> 10	> 10	> 10	> 10	> 10	> 10	> 10	> 10	> 10	> 10		> 10	> 10	> 10	
C(=Nc1ccc(-c2cc(-c3ccccc3)nc3ccc4ccccc4c23)cc1)c1ccccc1	> 100	> 100	> 100	73.1	58	68.9	> 100	> 100	> 100	48.8	> 100	74.6	62.2	> 100	13.5	> 100	50.4		
CCCc1c(O)c(=O)c2c(OC)cc(OC)c3c4c(OC)cc(OC)c5c(=O)c(O)c(CCC)c(c1c23)c54	2.31	3.38	3.58	3.35	12.7	> 27.7		1.11	19.1	12.2	3.55	15.8	13.1	19.4	14.1	18.2	8.65	8.71	1.15
COc1cc(/C=C/C(=O)OC2C(O)C3CC(OC(=O)c4cc(OC)c(OC)c(OC)c4)CC2N3C)cc(OC)c1OC (stereo unspecified)	> 50	> 50	> 50	> 50	39.9	> 50		> 50		> 50	> 50	> 50	> 50	> 50	> 50	> 50	> 50	> 50	> 50
C=C[C@H]1CC[C@H]2[C@@H]3CC=C4C[C@@H](OC5OCC(O)C(O)C5O)CC[C@]4(C)[C@H]3CC[C@]12C (stereo partly specified)	28.4	33.5	10.8	30	65.9	25.5		> 100		29.7	38.1		27.5	28.1		37.7	40.9	34.5	25.9
